According to the supplement of paper PMC10307832:

Columns and labels:
Assay in all cases: relative viability (nuclei count vs DMSO), 5 days (fraction); higher = more cells survive
[1] = compound: COC1=CC=C(C=C1)CN2C=CC3=C2C=C(C=C3)C(=O)NO + O=C(c1cc(Cc2n[nH]c(=O)c3ccccc23)ccc1F)N1CCN(C(=O)C2CC2)CC1 [Olaparib] (partner 8 µM)
Summary of the method: (§1)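 Lung cancer cell lines were pin-tool dosed in 1536-well plates on the day after seeding, with either a lone drug or a fixed anchor-drug dose plus five library-drug doses (not always all listed) in √10 steps. Nuclei were counted on 4× images after 5 days. Relative viability is the ratio of treated-well to vehicle-well nuclei counts, with each value a median of duplicate plates.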

Veliparib + Tozasertib = compound: C[C@]1(c2nc3c(C(N)=O)cccc3[nH]2)CCCN1 [Veliparib] + Cc1cc(Nc2cc(N3CCN(C)CC3)nc(Sc3ccc(NC(=O)C4CC4)cc3)n2)n[nH]1 [Tozasertib] (partner 0.1 µM)
Summary of the method: as §1

Veliparib + Decitabine = compound: C[C@]1(c2nc3c(C(N)=O)cccc3[nH]2)CCCN1 [Veliparib] + Nc1ncn([C@H]2C[C@H](O)[C@@H](CO)O2)c(=O)n1 [Decitabine] (partner 2 µM)
Summary of the method: as §1

[2] = compound: COC1=CC=C(C=C1)CN2C=CC3=C2C=C(C=C3)C(=O)NO + CS(=O)(=O)CCNCc1ccc(-c2ccc3ncnc(Nc4ccc(OCc5cccc(F)c5)c(Cl)c4)c3c2)o1 [Lapatinib] (partner 2 µM)
Summary of the method: as §1

Cell Line	relative viability ([1]; first compound 0.08 µM)	relative viability ([1]; first compound 0.253 µM)	relative viability ([1]; first compound 0.8 µM)	relative viability ([1]; first compound 2.53 µM)	relative viability ([1]; first compound 8 µM)	relative viability (Veliparib + Tozasertib; first compound 0.02 µM)	relative viability (Veliparib + Tozasertib; first compound 0.06325 µM)	relative viability (Veliparib + Tozasertib; first compound 0.2 µM)	relative viability (Veliparib + Tozasertib; first compound 0.6325 µM)	relative viability (Veliparib + Tozasertib; first compound 2 µM)	relative viability (Veliparib + Decitabine; first compound 0.02 µM)	relative viability (Veliparib + Decitabine; first compound 0.06325 µM)	relative viability (Veliparib + Decitabine; first compound 0.2 µM)	relative viability (Veliparib + Decitabine; first compound 0.6325 µM)	relative viability (Veliparib + Decitabine; first compound 2 µM)	relative viability ([2]; first compound 0.253 µM)	relative viability ([2]; first compound 0.8 µM)	relative viability ([2]; first compound 2.53 µM)	relative viability ([2]; first compound 8 µM)	relative viability ([2]; first compound 0.08 µM)
HCC-366	0.237	0.338	0.371	0.375	0.292	0.159	0.147	0.108	0.137	0.112	0.332	0.225	0.195	0.189	0.182	0.992	1.06	1.04	1.07	–
HCC-827	0.573	0.697	0.655	0.68	0.531	0.436	0.443	0.434	0.376	0.398	0.298	0.303	0.292	0.241	0.3	0.212	0.168	0.181	0.178	0.189
HOP-62	–	0.47	0.489	0.396	0.384	0.327	0.382	0.419	0.328	0.39	0.221	0.198	0.164	0.197	0.251	1.1	1.08	0.997	0.973	0.225
IA-LM	0.755	0.846	0.954	0.902	0.833	–	–	–	–	–	–	–	–	–	–	0.662	0.952	0.966	0.541	0.551
LC-2-ad	0.696	0.343	0.681	0.688	0.709	–	0.456	0.486	0.417	0.445	0.775	0.801	0.706	0.673	0.763	0.948	0.972	0.931	0.92	0.259
LCLC-97TM1	–	0.422	0.375	0.36	0.38	0.231	0.237	0.204	0.197	0.253	0.205	0.206	0.237	0.208	0.194	0.872	1.26	0.911	0.806	–
LCLC-103H	0.743	0.777	0.773	0.781	0.708	0.528	0.339	0.463	0.443	0.485	0.809	0.662	0.667	0.705	0.714	–	–	–	–	–
LK-2	–	0.792	0.787	0.688	0.722	–	0.152	0.159	0.221	0.18	0.259	0.278	0.273	0.283	0.225	0.909	0.932	0.955	0.82	–
LOU-NH91	–	0.95	0.928	0.903	0.894	0.647	0.684	0.729	0.584	0.746	0.847	0.785	0.792	0.782	0.837	0.745	0.825	0.733	0.725	0.561
LU99A	–	0.277	0.262	0.252	0.26	0.328	0.271	0.239	0.245	0.279	1.01	0.875	0.932	0.825	0.866	0.92	0.961	0.957	0.891	–
LXF-289	–	1.05	1.11	1.11	1.11	0.194	0.193	0.233	0.208	0.216	0.362	0.311	0.342	0.283	0.332	0.921	0.878	0.926	0.883	0.301
NCI-H441	0.441	0.58	0.526	0.497	0.609	0.633	0.608	0.529	0.541	0.683	0.227	0.216	0.179	0.212	0.228	–	–	–	–	–
NCI-H522	–	0.669	0.693	0.65	0.568	0.628	0.579	0.508	0.598	0.545	0.663	0.561	0.547	0.622	0.678	–	–	–	–	–
NCI-H1299	1.04	0.98	0.948	1.03	0.92	–	–	–	–	–	–	–	–	–	–	0.979	0.969	0.934	0.923	0.959
NCI-H1563	–	–	–	–	–	–	–	–	–	–	–	–	–	–	–	0.939	0.953	0.862	0.748	0.769
NCI-H1623	–	–	–	–	–	–	0.439	0.428	0.461	0.444	–	–	–	–	–	–	–	–	–	–
NCI-H1648	0.81	0.725	0.964	0.932	0.651	0.723	0.469	0.383	0.405	0.363	0.487	–	–	0.529	0.424	–	–	–	–	–
NCI-H1703	–	0.581	0.817	0.491	0.46	–	–	–	–	–	–	–	–	–	–	1.16	1.1	1.07	0.873	0.691
NCI-H1792	0.438	0.578	0.445	0.447	0.561	–	–	–	–	–	0.463	0.381	0.397	0.263	0.26	0.906	0.824	0.915	0.836	0.867
NCI-H2228	0.686	0.82	0.79	0.88	0.651	0.31	0.318	0.352	0.176	0.353	–	–	–	–	–	0.853	1.11	0.916	0.789	0.864
NCI-H2342	0.437	0.449	0.457	0.442	0.373	0.498	0.573	0.421	0.504	0.508	0.729	0.758	0.679	0.718	0.725	–	–	–	–	–
SW 900	0.759	0.956	0.769	0.849	0.604	–	–	0.636	0.533	0.586	–	0.377	0.396	0.427	0.388	–	–	–	–	–
